Some test systems named below: A549 NSCLC; COLO 205 colon; DMS 114 small cell lung; NCI-H226 lung; NCI-H23 lung; OVCAR-3 ovarian; SF-295 CNS; SN12C renal; UACC-62 melanoma; HOP-18 NSCLC.
Assay in all cases: NCI-60 cell line screen, 48 h

Structures are written as SMILES. Values joined by “and” are separate entries in the source; they are usually repeats but may differ in a detail not shown here. Identical values can stand only once.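 Briefly, cells in 96-well plates were exposed to five compound concentrations for 48 h, and endpoints were estimated by linear interpolation. Here, GI50 denotes the concentration required for 50% inhibition of growth. TGI is the concentration that stops growth completely.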

In the case of `O=C1OCCC1C(O)C1c2ccccc2-c2ccccc21` (stereo unspecified), the TGI in the assay on A549 NSCLC, in the assay with COLO 205 colon, in the assay with DMS 114 small cell lung, in the assay with NCI-H226 lung, with NCI-H23 lung and in the assay on OVCAR-3 ovarian was over 100 µM throughout. Moreover, the TGI in the assay on SF-295 CNS, in the assay with SN12C renal and with UACC-62 melanoma was over 100 µM each time.

`O=c1c2ccccc2n2n1CC(O)C2` (stereo unspecified): the TGI in the assay on A549 NSCLC, in the assay with COLO 205 colon, in the assay on HOP-18 NSCLC, in the assay on NCI-H226 lung, with NCI-H23 lung and with OVCAR-3 ovarian was over 100 µM throughout. Further, the TGI with SF-295 CNS and in the assay on SN12C renal was over 100 µM throughout.

`COC(=O)[C@]12CC[C@@H](C)[C@H](C)[C@@H]1C1=CC[C@@H]3[C@@]4(C)C(C=O)=C[C@@](C)(COC(=O)c5ccco5)[C@@H]4C(=O)C[C@@]3(C)[C@]1(C)CC2`: the GI50 in the assay with A549 NSCLC is 3.99 µM; in the assay on COLO 205 colon, 0.0314 µM; in the assay with NCI-H226 lung it was 2.63 µM; with NCI-H23 lung, 4.33 µM; with OVCAR-3 ovarian, 5.75 µM; in the assay with SF-295 CNS, 3.99 µM. The GI50 in the assay on SN12C renal was 8.69 µM; in the assay on UACC-62 melanoma, 0.232 µM. In addition, the TGI with A549 NSCLC is over 100 µM; with COLO 205 colon it was 0.0971 µM; in the assay on NCI-H226 lung, 12.6 µM; with NCI-H23 lung, over 100 µM; with OVCAR-3 ovarian, over 100 µM; in the assay with SF-295 CNS, over 100 µM. For the same compound, the TGI is over 100 µM in the assay on SN12C renal and 2.34 µM in the assay with UACC-62 melanoma.

`Cn1nnnc1N/N=C/c1ccccc1`: the TGI with A549 NSCLC, in the assay on COLO 205 colon, in the assay on NCI-H226 lung, in the assay on NCI-H23 lung, in the assay with OVCAR-3 ovarian and in the assay on SF-295 CNS was over 10 µM throughout. Moreover, the TGI in the assay on SN12C renal and with UACC-62 melanoma was over 10 µM in each case.

For `CCOC(=O)C1=C(O)CSC1=Nc1ccccc1`, the TGI in the assay on A549 NSCLC, in the assay with COLO 205 colon, in the assay on NCI-H226 lung, in the assay on NCI-H23 lung, in the assay with OVCAR-3 ovarian and with SF-295 CNS was over 100 µM in each case. The TGI in the assay on SN12C renal and in the assay on UACC-62 melanoma was over 100 µM throughout.

Take `O=C(Nc1ccc(Cl)cc1F)c1cc(I)ccc1O`: the GI50 with A549 NSCLC was 2.88 µM; in the assay with COLO 205 colon, 4.52 µM; in the assay on NCI-H226 lung, 1.94 µM; in the assay on NCI-H23 lung, 1.78 µM; with OVCAR-3 ovarian it was 1.66 µM; with SF-295 CNS, 1.89 µM. Besides, the GI50 in the assay with SN12C renal was 1.01 µM; in the assay with UACC-62 melanoma, 0.448 µM. Besides, the TGI was over 100 µM in the assay on A549 NSCLC; 17.5 µM in the assay on COLO 205 colon; 7.14 µM with NCI-H226 lung; 6.59 µM in the assay on NCI-H23 lung; 16.1 µM with OVCAR-3 ovarian; 3.75 µM in the assay on SF-295 CNS. Moreover, the TGI is 7.62 µM with SN12C renal and 2.19 µM with UACC-62 melanoma.

In the case of `CCOc1cc2c(cc1O)/C(=N\O)C[C@@H]1[C@@H]2CC[C@]2(C)[C@@H](O)CC[C@@H]12`, the GI50 in the assay on A549 NSCLC was 0.0854 µM; in the assay on COLO 205 colon it was 0.00176 µM; in the assay on NCI-H226 lung it was 0.258 µM; in the assay with NCI-H23 lung it was 0.004 µM; with OVCAR-3 ovarian, 0.0114 µM and 0.0299 µM; with SF-295 CNS, 0.00322 µM and 0.0266 µM. Further, the GI50 with SN12C renal is 0.059 µM; in the assay with UACC-62 melanoma it was 0.00607 µM. In addition, the TGI was over 100 µM in the assay on A549 NSCLC; over 100 µM with NCI-H226 lung; 0.081 µM and 0.0784 µM with SF-295 CNS; over 100 µM in the assay on SN12C renal; 28.8 µM in the assay on UACC-62 melanoma.

With `CN(C)c1ccc(/C=C2\N=C(c3ccc([N+](=O)[O-])cc3)OC2=O)cc1`, the TGI in the assay on A549 NSCLC, with COLO 205 colon, in the assay on NCI-H226 lung, with NCI-H23 lung, with OVCAR-3 ovarian and in the assay on SF-295 CNS was over 100 µM in each case. Also, the TGI with SN12C renal and in the assay with UACC-62 melanoma was over 100 µM throughout.

As to `CC(C)(C)CC(C)(C)c1cc2c(O)c(c1)Cc1cc(C(C)(C)CC(C)(C)C)cc(c1O)Cc1cc(C(C)(C)CC(C)(C)C)cc(c1O)Cc1cc(C(C)(C)CC(C)(C)C)cc(c1O)Cc1cc(C(C)(C)CC(C)(C)C)cc(c1O)Cc1cc(C(C)(C)CC(C)(C)C)cc(c1O)C2`, the TGI with A549 NSCLC, with COLO 205 colon, with DMS 114 small cell lung, in the assay with NCI-H23 lung, with OVCAR-3 ovarian and in the assay with SF-295 CNS was over 100 µM each time. In addition, the TGI in the assay on SN12C renal and in the assay with UACC-62 melanoma was over 100 µM each time.

With `CC(=O)O[C@H](C[C@H](C(C)C)N(C)C(=O)[C@@H](NC(=O)[C@H]1CCCCN1C)C(C)C)c1nc(C(=O)N[C@@H](Cc2ccccc2)C[C@H](C)C(=O)O)c(C(C)C)s1`, the GI50 was 0.00495 µM with A549 NSCLC; under 0.00333 µM in the assay with COLO 205 colon; 0.00335 µM in the assay on NCI-H226 lung; under 0.00333 µM with NCI-H23 lung; under 0.00333 µM in the assay on OVCAR-3 ovarian; under 0.00333 µM with SF-295 CNS. Also, the GI50 with SN12C renal and in the assay on UACC-62 melanoma was under 0.00333 µM each time. In addition, the TGI in the assay with A549 NSCLC is over 33.3 µM; with COLO 205 colon, under 0.033 µM; with NCI-H226 lung, 0.382 µM; in the assay with NCI-H23 lung, over 33.3 µM; with OVCAR-3 ovarian it was 0.00598 µM; with SF-295 CNS, 0.297 µM. For the same compound, the TGI in the assay on SN12C renal and in the assay with UACC-62 melanoma was over 33.3 µM each time.

For `COc1ccc2nc3cc(Cl)ccc3c(N3CCN(c4ccnc(N5CCOCC5)n4)CC3)c2c1`, the GI50 in the assay on A549 NSCLC was over 100 µM; in the assay on COLO 205 colon, 6.66 µM; with NCI-H226 lung, over 100 µM; in the assay with NCI-H23 lung, 8.61 µM; in the assay on OVCAR-3 ovarian, 4.14 µM; with SF-295 CNS, over 100 µM. The GI50 in the assay with SN12C renal and in the assay with UACC-62 melanoma was over 100 µM throughout. In addition, the TGI is over 100 µM in the assay on A549 NSCLC; over 100 µM with COLO 205 colon; over 100 µM with NCI-H226 lung; over 100 µM in the assay with NCI-H23 lung; 57.3 µM in the assay on OVCAR-3 ovarian; over 100 µM with SF-295 CNS. Also, the TGI in the assay with SN12C renal and in the assay on UACC-62 melanoma was over 100 µM in each case.

For the origin of these results see PubChem BioAssay (NCI).
